According to US8450325B2, “Methods for reducing the recurrence of cardiac arrhythmia” (ChanRx Corp., priority 2002, dated 2013):
“Also recorded” adds a separate entry of the source.

Columns and labels:
hERG (IKr) channel = hERG (IKr) channel (Homo sapiens, UniProt Q12809); assay: in vitro
Text: (§1) Nonlinear least squares fits of the current ratio data yielded the best fit value for the IC50 concentration. A positive control was included for each channel tested in the study.

hHNa ion channel = hHNa ion channel (Homo sapiens, UniProt Q14524); assay: voltage clamp current block, hHNa channel in stably transfected mammalian cells; assay type: cell-based; settings: 0.1 Hz, 6 bpm
Chain of hHNa ion channel (Q14524 whole entry): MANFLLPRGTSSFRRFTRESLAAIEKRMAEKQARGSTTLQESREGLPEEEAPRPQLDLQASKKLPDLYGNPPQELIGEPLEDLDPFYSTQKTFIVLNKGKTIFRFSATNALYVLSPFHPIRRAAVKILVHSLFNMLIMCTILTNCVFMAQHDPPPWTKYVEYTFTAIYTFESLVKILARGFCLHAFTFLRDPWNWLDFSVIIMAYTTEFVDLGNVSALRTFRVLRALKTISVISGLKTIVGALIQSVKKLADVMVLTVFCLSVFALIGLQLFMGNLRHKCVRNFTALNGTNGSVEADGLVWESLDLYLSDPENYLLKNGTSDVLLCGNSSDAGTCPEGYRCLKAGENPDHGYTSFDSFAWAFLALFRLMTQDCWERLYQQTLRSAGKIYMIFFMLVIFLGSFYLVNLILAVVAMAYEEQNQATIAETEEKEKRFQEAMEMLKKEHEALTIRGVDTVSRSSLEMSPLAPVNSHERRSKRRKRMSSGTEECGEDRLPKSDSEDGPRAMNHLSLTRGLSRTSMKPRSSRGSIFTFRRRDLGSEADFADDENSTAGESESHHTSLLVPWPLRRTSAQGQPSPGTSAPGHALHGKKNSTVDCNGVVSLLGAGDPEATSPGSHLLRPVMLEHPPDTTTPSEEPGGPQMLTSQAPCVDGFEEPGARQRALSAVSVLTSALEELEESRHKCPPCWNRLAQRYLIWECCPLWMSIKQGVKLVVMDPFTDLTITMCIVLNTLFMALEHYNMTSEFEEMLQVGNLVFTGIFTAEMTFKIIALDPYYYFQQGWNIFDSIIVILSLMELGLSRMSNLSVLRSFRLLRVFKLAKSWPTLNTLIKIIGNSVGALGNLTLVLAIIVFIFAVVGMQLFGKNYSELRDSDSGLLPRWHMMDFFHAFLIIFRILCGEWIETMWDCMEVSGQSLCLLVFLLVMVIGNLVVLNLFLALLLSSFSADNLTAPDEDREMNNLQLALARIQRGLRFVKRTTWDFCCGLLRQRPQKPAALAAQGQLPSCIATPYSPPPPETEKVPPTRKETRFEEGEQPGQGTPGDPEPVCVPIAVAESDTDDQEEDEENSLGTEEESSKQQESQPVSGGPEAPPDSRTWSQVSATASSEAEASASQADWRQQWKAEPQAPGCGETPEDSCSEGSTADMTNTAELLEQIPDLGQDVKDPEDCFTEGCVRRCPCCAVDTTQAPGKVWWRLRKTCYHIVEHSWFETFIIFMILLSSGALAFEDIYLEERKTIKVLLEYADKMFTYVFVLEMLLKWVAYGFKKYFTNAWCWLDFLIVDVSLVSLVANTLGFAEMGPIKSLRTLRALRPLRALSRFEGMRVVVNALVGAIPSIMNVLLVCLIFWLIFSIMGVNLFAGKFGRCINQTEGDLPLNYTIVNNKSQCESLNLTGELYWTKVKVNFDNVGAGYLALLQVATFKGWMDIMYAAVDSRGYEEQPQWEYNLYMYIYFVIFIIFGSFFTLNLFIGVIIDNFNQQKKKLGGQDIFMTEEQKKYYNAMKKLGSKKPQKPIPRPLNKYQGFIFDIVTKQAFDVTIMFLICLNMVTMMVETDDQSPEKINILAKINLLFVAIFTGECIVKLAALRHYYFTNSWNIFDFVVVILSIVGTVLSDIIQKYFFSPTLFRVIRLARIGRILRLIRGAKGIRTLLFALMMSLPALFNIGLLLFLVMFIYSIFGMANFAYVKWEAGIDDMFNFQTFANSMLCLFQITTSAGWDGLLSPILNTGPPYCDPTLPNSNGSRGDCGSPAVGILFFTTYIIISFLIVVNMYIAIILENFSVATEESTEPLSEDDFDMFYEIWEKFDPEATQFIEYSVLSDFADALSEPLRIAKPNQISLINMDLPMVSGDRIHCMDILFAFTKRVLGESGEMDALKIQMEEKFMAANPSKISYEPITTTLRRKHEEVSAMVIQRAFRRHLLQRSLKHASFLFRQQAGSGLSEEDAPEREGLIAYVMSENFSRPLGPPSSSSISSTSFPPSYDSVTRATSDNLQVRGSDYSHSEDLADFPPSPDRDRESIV
Text: as §1

[1] = target: T1, native cardiac L-type calcium channel (gpCaCh, ICa,L) (Cavia porcellus, UniProt O35505); assay: voltage clamp current block, native cardiac L-type calcium channel in guinea pig cardiomyocytes; assay type: cell-based; settings: 0.05 Hz, 3 beats per minute
T1 construct: native cardiac L-type calcium channel expressed in guinea pig cardiomyocytes; endogenous in cells; host or cells: guinea pig cardiomyocytes

[2] = target: hKvLQT1/hminK (IKs) channel (Homo sapiens, UniProt P51787); assay: voltage clamp current block, hKvLQT1/hminK channel in stably transfected mammalian cells; assay type: cell-based; settings: 0.067 Hz, 4 bpm, unit inferred; read-out: IC50, block of IKs (hKvLQT1/hminK) channels
rKv4.3 (Ito) channel = target: T2, rKv4.3 (Ito) channel (Rattus norvegicus, UniProt Q62897); assay: voltage clamp current block, rKv4.3 channel in stably transfected mammalian cells; assay type: cell-based; settings: Ito (rKv4.3); 0.067 Hz, 4 bpm
T2 sequence (Q62897 1-655): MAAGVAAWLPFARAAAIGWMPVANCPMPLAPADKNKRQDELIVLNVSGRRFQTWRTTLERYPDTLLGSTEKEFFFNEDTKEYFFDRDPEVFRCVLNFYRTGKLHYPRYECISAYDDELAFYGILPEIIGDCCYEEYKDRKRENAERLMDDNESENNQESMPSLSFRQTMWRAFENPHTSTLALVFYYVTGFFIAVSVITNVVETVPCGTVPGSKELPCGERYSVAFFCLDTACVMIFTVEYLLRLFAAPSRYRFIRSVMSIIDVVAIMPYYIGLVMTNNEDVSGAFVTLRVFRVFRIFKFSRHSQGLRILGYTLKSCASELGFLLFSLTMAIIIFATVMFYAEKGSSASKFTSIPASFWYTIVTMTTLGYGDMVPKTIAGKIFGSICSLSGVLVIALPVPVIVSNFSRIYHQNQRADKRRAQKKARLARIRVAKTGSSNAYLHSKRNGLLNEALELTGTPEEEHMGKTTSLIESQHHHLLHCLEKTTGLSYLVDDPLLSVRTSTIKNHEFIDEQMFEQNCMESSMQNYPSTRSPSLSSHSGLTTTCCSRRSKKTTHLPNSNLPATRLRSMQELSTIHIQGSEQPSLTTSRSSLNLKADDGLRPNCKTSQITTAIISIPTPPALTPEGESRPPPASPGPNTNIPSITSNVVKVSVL

hKv1.5 channel = hKv1.5 channel (Homo sapiens, UniProt P22460); assay: voltage clamp current block, hKv1.5 channel in stably transfected mammalian cells; assay type: cell-based; settings: 0.1 Hz, 6 bpm
Chain of hKv1.5 channel (P22460 whole entry): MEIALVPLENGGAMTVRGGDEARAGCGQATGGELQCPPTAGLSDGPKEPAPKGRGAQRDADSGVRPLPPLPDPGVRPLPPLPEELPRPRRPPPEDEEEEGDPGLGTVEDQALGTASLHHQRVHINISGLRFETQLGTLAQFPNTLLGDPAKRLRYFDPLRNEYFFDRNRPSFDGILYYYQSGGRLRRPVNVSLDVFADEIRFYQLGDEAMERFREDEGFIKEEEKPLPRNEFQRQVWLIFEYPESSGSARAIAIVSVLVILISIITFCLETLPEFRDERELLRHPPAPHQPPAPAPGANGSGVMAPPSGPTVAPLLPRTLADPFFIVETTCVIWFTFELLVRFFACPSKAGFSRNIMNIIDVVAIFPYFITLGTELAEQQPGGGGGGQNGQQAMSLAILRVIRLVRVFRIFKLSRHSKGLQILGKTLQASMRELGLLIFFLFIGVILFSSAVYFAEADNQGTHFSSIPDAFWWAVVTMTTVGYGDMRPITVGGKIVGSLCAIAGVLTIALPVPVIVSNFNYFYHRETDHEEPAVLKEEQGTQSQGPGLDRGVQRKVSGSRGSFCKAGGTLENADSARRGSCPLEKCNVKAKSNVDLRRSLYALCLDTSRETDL

dog Purkinje fibers = assay: duration of the cardiac action potential in dog Purkinje fibers; design: dose or concentration left out as unconfirmed
[3] = 100 mg doses for 1 week; cited from earlier work

Chain of hERG (IKr) channel (Q12809 whole entry): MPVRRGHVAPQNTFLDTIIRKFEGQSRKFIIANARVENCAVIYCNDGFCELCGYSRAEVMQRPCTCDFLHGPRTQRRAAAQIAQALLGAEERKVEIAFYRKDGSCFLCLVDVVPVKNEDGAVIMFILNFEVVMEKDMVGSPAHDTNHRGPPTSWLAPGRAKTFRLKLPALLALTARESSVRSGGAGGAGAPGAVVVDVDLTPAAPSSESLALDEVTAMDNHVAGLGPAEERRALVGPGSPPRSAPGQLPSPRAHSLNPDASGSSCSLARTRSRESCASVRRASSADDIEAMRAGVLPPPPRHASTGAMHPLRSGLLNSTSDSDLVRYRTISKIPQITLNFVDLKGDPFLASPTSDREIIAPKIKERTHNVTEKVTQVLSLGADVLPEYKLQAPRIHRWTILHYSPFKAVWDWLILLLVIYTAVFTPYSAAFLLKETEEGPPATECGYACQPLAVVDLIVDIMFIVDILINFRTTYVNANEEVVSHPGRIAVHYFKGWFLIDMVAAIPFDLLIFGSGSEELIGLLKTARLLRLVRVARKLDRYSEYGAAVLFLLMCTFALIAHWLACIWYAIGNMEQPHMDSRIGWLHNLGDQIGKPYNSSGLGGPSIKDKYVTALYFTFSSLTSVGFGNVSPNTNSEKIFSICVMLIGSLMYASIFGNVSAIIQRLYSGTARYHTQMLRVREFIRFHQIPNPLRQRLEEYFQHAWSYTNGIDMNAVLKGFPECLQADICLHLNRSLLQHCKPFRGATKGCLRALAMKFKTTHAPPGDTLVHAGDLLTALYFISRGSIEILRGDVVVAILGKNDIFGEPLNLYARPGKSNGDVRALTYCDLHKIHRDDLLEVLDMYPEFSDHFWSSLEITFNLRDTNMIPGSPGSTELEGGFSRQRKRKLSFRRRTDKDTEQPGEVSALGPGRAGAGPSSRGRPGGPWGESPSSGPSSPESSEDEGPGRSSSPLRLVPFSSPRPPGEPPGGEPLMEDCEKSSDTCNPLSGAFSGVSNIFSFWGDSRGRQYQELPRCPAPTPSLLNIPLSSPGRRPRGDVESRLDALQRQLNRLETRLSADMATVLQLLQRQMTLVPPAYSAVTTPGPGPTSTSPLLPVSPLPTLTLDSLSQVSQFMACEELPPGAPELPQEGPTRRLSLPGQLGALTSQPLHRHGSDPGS

Hill coefficient, block of hHNa (hHNa ion channel; Hill equation fit): greater than 2.0
IC50 (hHNa ion channel; read-out: IC50 estimate, block of hHNa (Hill equation fit)): 570 nM
IC50 [1]: 530 nM
IC50 [2]: 4200 nM
IC50 (rKv4.3 (Ito) channel): 12000 nM
IC50 (hKv1.5 channel): 2000 nM
Structure (SMILES): Fc1ccc(C(OCCN2CCN(CCCc3ccccc3)CC2)c2ccc(F)cc2)cc1 [Vanoxerine, vanoxerine]
IC50 (hERG (IKr) channel): 150 nM
effect on the duration of the cardiac potential (dog Purkinje fibers): no effect; also recorded: did not prolong
serum concentration [3]: about 100 nM
